Key:
Assay type in all cases: in vivo
[1] = DHA level of red blood cells in dogs given nicotinol DHA via oral route
Description: (§1) Effect of nicotinol DHA on the fatty acid composition of plasma and red blood cells in dogs treated via oral route. The objective of this first study was to assay total DHA in the blood (plasma and red blood cells) of dogs given nicotinol DHA via oral route.
(§2) Two groups of 10 dogs were used:
(§3) Group 2: nicotinol DHA at 2 g per day.
(§4) All the animals were given either a placebo or nicotinol DHA at 2 g per day via oral route for 28 days. Blood samples were taken at D1 (control), D7, D14, D21 and D28.
(§5) The total lipids of the plasma (500 μL) and of the red blood cells (≈500 mg, the weighing of red blood cells is more accurate than measuring volume) were extracted with 4 mL of hexane/isopropanol mixture ([…]) in an acid medium (3M HCl, 500 μL) in the presence of margaric acid as internal standard (100 μg). After agitation and centrifugation (2000 g, 15 minutes, 10° C.) the organic phase was separated. A second extraction with 2 mL of the same solvent was performed under the same conditions. The organic phases were washed with 2 mL of saline water ([…]). The solvents were evaporated under a stream of nitrogen at 40° C.
(§6) The total lipids derived from the plasma and red blood cells were then saponified (1 mL of 0.5M NaOH in methanol, 70° C., 30 minutes) then converted to methyl eaters (1 mL, 14% BF3 in methanol, 70° C., 15 minutes). After hydrolysio (4 mL […]) they were extracted with 4 then 2 mL of pentane. The organic phases were washed with 2 mL of saline water (9% NaCl). The solvents were evaporated under a stream of nitrogen at 40° C. The methyl esters were re-dissolved in 200 μL hexane for the plasma and red blood cells. The extracted fatty acid methyl esters were analysed by gas phase chromatography. The chromatograph (Agilent Technologies 6890N) was equipped with a split injector heated to 260° C. (1:10 division ratio), capillary column (length 60 m, diameter 0.25 mm) with BPX70 stationary phase (70% cyanopropylpolyphenylene-siloxane; thickness 0.25 μm) and flame ionization detector heated to 260° C. (hydrogen: 40 mL/min, air: 450 mL/min). The vector gas was helium (constant flow rate 1.5 mL/min). The temperature of the column was initially 150° C. and brought at a temperature gradient of 1.3° C./min up to 220° C. then 40° C./min to reach 260° C. for 5 minutes. The retention times of standard methyl esters allowed identification of the extracted fatty acid methyl esters.
(§7) The DHA was quantitated relative to the internal standard (C17:0) added in known quantity to the sample before extraction of the total lipids. It is expressed in μg/mL for the plasma, in μg/g for the red blood cells. The values are given as a mean f standard deviation (in general n=10). The significant differences are shown by a Student's test with 5% threshold.

[2] = DHA plasma level in dogs given nicotinol DHA via oral route
Description: as §1, §2, §3, §4, §5, §6, §7

[3] = DHA concentration in human red blood cells after oral panthenol DHA (clinical trial); conditions: irrespective of the dose (1, 2, 4 g/day), 28 days
Protocol: Concentration of DHA in human red blood cells after absorption of panthenol DHA.
The objective of this clinical trial was to determine total DHA concentrations in the red blood cells of volunteers given a once daily oral dose of panthenol DHA for 28 days. Three doses of panthenol […] were tested in this trial: 1, 2 and 4 g/day. Twelve persons were included in this trial, 3 were given a placebo (without panthenol DHA) and 9 were given panthenol DHA.
Blood samples were taken before administering panthenol DHA (corresponding to the baseline) and thereafter at days 4, 7, 10 14, 15, 19, 22, 25 and 29 to determine the DHA concentrations in the red blood cells. Two blood samples of 4 mL each were taken in tubes containing EDTA. The tubes were centrifuged at 3000 g for 15 minutes at ambient temperature within 30 minutes after the taking of the sample. […]
The lipids were extracted from the red blood cell samples (≈500 mg) using a hexane/isopropanol mixture (3:2 v/v) in an acid medium in the presence of margaric acid as internal standard (100 μg). […] After extraction with pentane, the extracted fatty acid methyl esters were analysed by gas phase chromatography. […]
The DHA was quantitated relative to the internal standard (C17:0) added in known quantity to the sample before extraction of the total lipids. […]

[4] = DHA plasma level in rats given panthenol DHA via oral force-feeding; conditions: 300 and 1000 mg/kg per day oral, 7 days (FIG. 1)
Protocol: (§8) Incorporation of DHA in the plasma and red blood cells of rats receiving panthenol […] via oral route. The objective of this study was to assay total DHA in the blood (plasma and red blood cells) of rats given panthenol DHA via oral force-feeding for 7 days.
(§9) Three groups of 4 rats (2 male and 2 female) were used:
(§10) Group 1: control group (olive oil)
(§11) Group 2: panthenol DHA at 300 mg/kg per day.
(§12) Group 3: panthenol DHA at 1000 mg/kg per day.
(§13) The total lipids of the plasma (500 μL) and red blood cells were extracted with a hexane/isopropanol mixture (3:2, v/v) in an acid medium (3M HCl, 1 mL) in the presence of margaric acid as internal standard. The total lipids from the plasma and red blood cell were saponified (i mL 0.5M NaOH in methanol, 70° C., 30 minutes) then converted to methyl esters (1 mL, 14% BF) in methanol, 70° C., 15 minutes). The fatty acid methyl esters were extracted with pentane then analysed by gas phase chromatography. The chromatograph (Agilent Technologies 6890N) was equipped with a split injector heated to 250° C. (division ratio 1:10) and a capillary column (length 60 m, diameter 0.25 mm) with BPX70 stationary phase (70% cyanopropylpolyphenylene-siloxane; thickness 0.25 μm). The vector gas was helium. […]
(§14) The DHA was quantitated in relation to the internal standard (C17:0) added in known quantity to the sample before extraction of the total lipids. […]

[5] = DHA level of red blood cells in rats given panthenol DHA via oral force-feeding; conditions: 300 and 1000 mg/kg per day oral, 7 days (FIG. 1)
Protocol: as §8, §9, §10, §11, §12, §13, §14

[6] = 2 g/D oral, significant at every treatment time vs control group
[7] = group 2, D −1 (start of the experiment, before treatment with 2 g/D oral)

Row | SMILES | DHA level of red blood cells, mean ([1]; 2 g/D oral, D 7) [µg/mL] | DHA level of red blood cells, mean ([1]; 2 g/D oral, D 14) [µg/mL] | DHA level of red blood cells, mean ([1]; 2 g/D oral, D 21) [µg/mL] | DHA level of red blood cells, mean ([1]; 2 g/D oral, D 28) [µg/mL] | effect of treatment on DHA level of red blood cells [1, 6] | DHA level of red blood cells, mean [1, 7] [µg/mL] | DHA plasma level, mean ([2]; 2 g/D oral, D 7) [µg/mL] | DHA plasma level, mean ([2]; 2 g/D oral, D 14) [µg/mL] | DHA plasma level, mean ([2]; 2 g/D oral, D 21) [µg/mL] | DHA plasma level, mean ([2]; 2 g/D oral, D 28) [µg/mL] | effect of treatment on plasma DHA [2, 6] | DHA plasma level, mean [2, 7] [µg/mL] | DHA level in human red blood cells versus placebo [3] | amount of DHA found in the plasma ([4]; female rats) | amount of DHA found in the plasma ([4]; male rats) | amount of DHA found in the red blood cells ([5]; female rats) | amount of DHA found in the red blood cells ([5]; male rats)
1 | CC/C=C\C/C=C\C/C=C\C/C=C\C/C=C\C/C=C\CCC(=O)OCc1cccnc1 [nicotinol DHA] | 4.7 | 7.1 | 8.3 | 8.7 | rise in the DHA level of red blood cells | 1.7 | 22.1 | 23.7 | 27.9 | 32.6 | increase in plasma DHA | 3.8 |  |  |  |  | 
2 | CC/C=C\C/C=C\C/C=C\C/C=C\C/C=C\C/C=C\CCC(=O)OCCCNC(=O)[C@@H](O)C(C)(C)CO [panthenol DHA, panthenyl docosahexaenoate] |  |  |  |  |  |  |  |  |  |  |  |  | increased compared with the placebo group | only increased with the higher dose | dependent on the dose | only increased with the higher dose | dependent on the dose

Source: patent US20150306056A1, “USE OF A DHA ESTER FOR PROPHYLACTIC AND/OR CURATIVE TREATMENT OF DREPANOCYTOSIS” (PIERRE FABRE MEDICAMENT, priority 2012, published 2015)
